Read-outs that look alike come from different tables or passages of the source.
How the values were obtained:
[1] = system: 60 min middle cerebral artery occlusion; test: Mouse 60 min middle cerebral artery occlusion, memantine with or without PcTX venom, infarct volume; type: in vivo; conditions: n=5
[2] = system: transient focal ischemia (middle cerebral artery occlusion); type: in vivo, mouse; conditions: for percentage of the infarct volume: vehicle 50.6±2.3
Description: To investigate the potential interaction between NMDA and ASIC1a blockade on infarct volume, memantine was administered before or after PcTX administration in rodents subjected to 60 min of middle cerebral artery occlusion and evaluated one day after ischemia induction.
(§1) Cerebral blood flow was monitored by transcranial laser doppler. All surgical procedures were performed under an operating stereomicroscope.
Rodents were treated with saline, PcTX and/or memantine according to the following schedule: Saline IP administered 30 min after middle cerebral artery occlusion; PcTX 15: (0.5 μL, 500 ng/mL) administered 15 min after middle cerebral artery occlusion; Memantine 30 (1 mL, 10 mg/kg) administered 30 min after middle cerebral artery occlusion; PcTx15 min/Memantine 30, 60 120; PcTX (0.5 μL, 500 ng/mL) administration 15 min after middle cerebral artery occlusion followed by IP Memantine (1 mL, 10 mg/kg) administration 30 min, 60 min, or 120 min after PcTX. Memantinel 5/PcTx 180, 300, 360: Memantine (1 mL, 10 mg/kg) administration IP 15 min after middle cerebral artery occlusion followed by intracerebraventricular PcTX (0.5 μL, 500 ng/mL) 180 min, 300 min, or 360 min after Memantine. N=5 animals per group.
FIG. 18 is a graph presenting exemplary data from experiments measuring the percentage of brain infarct volume as a function of the time (in minutes) of administration of memantine after mid-cerebral artery occlusion, in accordance with aspects of the present teachings. Memantine's time window (1 mL, 10 mg/kg). Memantine (0.1 mL, 10 mg/kg) or saline solution (1 mL) was IP-administered 15 minutes, 1 h, or 3 h after ischemia induction. […] Each column represents the mean±SE of the percentage of the infarct compared to the ipsilateral hemisphere.

[3] = mouse, in vivo
Description: We have, therefore, measured brain pH continuously with a fiber optic pH sensor in the ipsilateral and contralateral parietal cortex of mice immediately after the removal of the middle cerebral artery suture, to determine the degree, distribution, and the time course of acidosis following focal ischemia. Cerebral pH was evaluated in sham-operated animals, in vehicle-treated animals, in PcTX venom-treated animals, and in sodium bicarbonate treated animals. Values are mean±SE (n=3 for each group).
as §1
For continuous measurement of pH in the brain, a fiber optic pH micro system (pHOptica, WPI) was used. This system has a pH range between 5 and 9, and the resolution is ±0.003 units. A glass-fiber with its pH-sensitive tip ([…]) was stereotaxically implanted into the brain immediately after the middle cerebral artery occlusion at the following coordinates from the bregma: 2.4 mm laterally, 0.1 posteriorly and 2.2 mm deep. pH was continuously measured for 6 h. The instrument was calibrated with standard solutions (pH 4.0, 5.0, 6.0, 7.0, 8.0, and 9.0) before and after the experiments. […] Changes in pH values were evaluated after PcTX and NaHCO3 intracerebroventricularly or intravenous administration 2 hours after occlusion.

[4] = system: transient focal ischemia (middle cerebral artery occlusion); conditions: mouse, in vivo; for percentage of the infarct: iv
Description: Ischemia was induced by introducing a coated filament (6.0; Doccol) from the external carotid artery into the internal carotid artery and advancing it into the arterial Will's Circle, thereby occluding the middle cerebral artery (32). Rectal and temporalis muscle temperature was maintained at 37° C.±0.5° C. with a thermostatically controlled heating pad and lamp. Cerebral blood flow was monitored by transcranial laser doppler. All surgical procedures were performed under an operating stereomicroscope.

cortical neurons [5] = test: LDH release after 1 hr oxygen-glucose deprivation combined with acidosis; type: cell-based, mouse; conditions: n=8-11
Description: To determine if activation of ASICs in ischemic conditions produced greater neuronal injury, neurons from P1 ASIC1^+/+ and ASIC1^−/− mice were subjected to 1 hr acid treatment under oxygen and glucose deprivation.
(§2) Following anesthesia with halothane, cerebral cortices were dissected from PI ASIC1^+/+ and ASIC1^−/− mice and incubated with 0.05% trypsin-EDTA for 10 min at 37° C. Tissues were then triturated with fire-polished glass pipettes and plated on poly-L-ornithine-coated 24-well plates or 25×25 mm glass coverslips at a density of 2.5×10^5 cells per well or 10^6 cells per coverslip. Neurons were cultured with MEM supplemented with 10% horse serum (for E16 cultures) or Neurobasal medium supplemented with B27 (for P1 cultures) and used for electrophysiology and toxicity studies after 12 days. Glial growth was suppressed by addition of 5-fluoro-2-deoxyuridine and uridine, yielding cultured cells with ˜90% neurons as determined by NeuN and GFAP staining (data not shown).
[…]. Oxygen-glucose deprivation was terminated after 1 hr by replacing the glucose-free ECF with Neurobasal medium and incubating the cultures in a normal cell culture incubator.
Aarts et al. (2003) have recently studied ischemia molded by prolonged oxygen-glucose deprivation (2 hr) but without acidosis. […]

[6] = system: cortical neurons cultured from ASIC+/+ and ASIC1-/- mice; test: LDH release in neurons cultured from ASIC+/+ and ASIC1-/- mice; type: cell-based, mouse; conditions: ASIC1-/- neurons, 1 hr 1 mM NMDA+10 μM glycine, Mg2+-free pH 7.4 ECF, n=4
Description: as §2
Cells were treated with either pH 7.4 or 6.0 ECF for 1 hr. LDH release was measured 24 hr after acid incubation. […] Background absorbance at 620 was subtracted.

cortical neurons [7] = type: cell-based, mouse; conditions: preincubation 1 μM, n=6

## CC12CC3CC(C)(C1)CC(N)(C3)C2 [memantine]
[1]; ASIC1-/- mice, memantine ip
  infarct volume: 27.7±1.6 mm^3
[1]; ASIC+/+ mice, 10 mg/kg ip, saline 101.4±9.4
  infarct volume: 61.6±12.7 mm^3
[1]; memantine 10 mg/kg ip + aCSF icv, control 123.6±5.3
  infarct volume: 73.8±6.9 mm^3
[2]; 1 mg/kg 1 h after MCAO, n=5
  percentage of the infarct volume: 55.4±5.2
[2]; 10 mg/kg 1 h after MCAO, n=5
  percentage of the infarct volume: 41.0±3.4
[2]; 30 mg/kg 1 h after MCAO, n=5
  percentage of the infarct volume: 43.4±3.8
[2]; 100 mg/kg, n=5, all the mice
  survival of treated ischemic mice: died
[2]; memantine alone ip 1 h after MCAO (time window, FIG. 18), saline 50.6±2.3, n=5
  infarct volume: 40.3±4.3%

## O=C([O-])O.[Na+] [bicarbonate, sodium bicarbonate]
[3]
  brain pH value after administration: 7.25±0.25
[3]; iv
  modifying brain pH: less effective
[4]
  relative infarct volume: 34.5±1.27%
[4]; 2.5 mg/kg
  percentage of the infarct: 61.51±5.03%
[4]; 5 mg/kg
  percentage of the infarct: 55.4±7.89%

## Cc1c(C)c2c(c(C)c1O)CCC(C)(C(=O)O)O2 (centres unmarked) [trolox]
Cortical neurons [5]; 500 μM
  combined 1 hr oxygen-glucose deprivation/acidosis-induced neuronal injury: neither trolox (500 μM) nor L-NAME (300 μM) had significant effect

## CN[C@H](CC(=O)O)C(=O)O [NMDA]
[6]
  LDH release at 24 hr, % of maximal: 84.8%±1.4%

## COC(=O)[C@@H](N)CCCNC(=N)N[N+](=O)[O-] [L-NAME]
Cortical neurons [5]; 300 μM
  combined 1 hr oxygen-glucose deprivation/acidosis-induced neuronal injury: neither trolox (500 μM) nor L-NAME (300 μM) had significant effect

## C/C=C(/C)C(=O)O[C@H]1C(C)=C2[C@H]([C@@H]1OC(=O)CCCCCCC)[C@@](C)(OC(C)=O)C[C@H](OC(=O)CCC)[C@@]1(O)[C@H]2OC(=O)[C@@]1(C)O [thapsigargin]
Cortical neurons [7]
  sustained component of acid-induced Ca2+ increase: partially inhibited

From patent publication US8030442B2, “Treatment of injury to the brain by inhibition of acid sensing ion channels” (priority 2004, dated 2011)
